The values below come from patent publication US12178801B1, “Stable psilocin salts, esters and conjugates and uses thereof” (LOBE SCIENCES LTD., priority 2022, dated 2024).

“And” between values parts separate entries of the source, which are not always exact repeats. Equal values may be shown once. “Also recorded” adds a separate entry of the source.

Data set [1] can be described thus: Stability studies on psilocin mucate capsule (appearance, HPLC assay and impurities, TM-022-0392). It is filed as physicochemical. The note with it: for Assay TM-22-0392 (% Label Claim): specification 90.0-110.0%. As for the experimental part:
Additional stability studies were performed on psilocin mucate (also known as psilocin mucic acid salt or conjugate or psilocin galactaric acid salt or conjugate) capsule.
Appearance was evaluated by viewing of the sample on a watchglass over a black and white background.
Assay conditions for Test/Method TM-022-0392 assessing stability and impurities were as follows: • Mobile phase: MPA: 945 mL water, 5 mL H3PO4 pH to 5.7 with NaOH; MPB: Acetonitrile • Diluent: 80:20 Water:MeOH • Standard: 0.4 mg/mL Psilocin Mucic RS in Diluent • Sample:0.4 mg/mL Psilocin Mucic AP in Diluent • HPLC Conditions are depicted in Table 3.
*Additional equilibration may be required System suit: RSD NMT 2.0% (5 injections), Tailing NMT 2.0, Plate count NLT 10000
Calculations were against a bracketing external standard.
Identity of psilocin mucate was verified by ultraviolet (UV) assessment, wherein the UV spectrum of the main peak in the standard matched the UV spectrum of the main peak in the sample and by retention time wherein the retention time ratio was 0.98-1.02.

A further data set deals with healthy subjects. As to the kind of experiment: Phase one single-dose study of psilocin mucic acid conjugate capsules: MMSE and mood assessment by psychiatrist. The note with it: single oral capsule 4.05 mg, equivalent to 2 mg psilocin.
For data set [2] the following is noted: psilocin from psilocybin administration; cited from earlier work.
For data set [3] the following is noted: psilocybin dose, equivalent to about 2 mg psilocin; cited from earlier work.

`CN(C)CCc1c[nH]c2cccc(O)c12.O=C(O)[C@@H](O)[C@H](O)[C@H](O)[C@@H](O)C(=O)O` [psilocin mucate]: the “Time for which demonstrated to be stable” value in data set [1] is “at least 7 months”. In data set [1] (capsule, 7 Months), the “Appearance, Packaging: Labeled, amber glass bottle with white closure containing 15 partially filled white opaque capsules” value is reported as “Conforms”; the “Appearance, Product: White to light brown powder partially filling white opaque capsules” value was “Conforms”; the “Total Impurities TM-22-0392” value is reported as <0.05%; the “Assay TM-22-0392 (% Label Claim)” value is reported as 101.7%. Besides, the “Impurities TM-22-0392, individual impurities” value in data set [1] (capsule, 7 Months, all impurities) is listed as “All <0.05%”. For the same compound, in data set [1] (capsule, Initial), the “Appearance, Packaging: Labeled, amber glass bottle with white closure containing 15 partially filled white opaque capsules” value is “Conforms”; the “Appearance, Product: White to light brown powder partially filling white opaque capsules” value is listed as “Conforms”; the “Total Impurities TM-22-0392” value stood at 0.08%; the “Assay TM-22-0392 (% Label Claim)” value worked out at 100.8%. Besides, the “FEELING STATUS” value with healthy subjects (one statement per subject (01-10)) is listed as “Less anxious, better mood, increase their appetite; also recorded: Feel little beet happier, better energy; also recorded: Feel calm, less thoughts, happier mood; also recorded: Euphoric, better mood, it helps with life stress; also recorded: Euphories, better mood, sleepy, feel time is slower; also recorded: Sleepy, better thoughts, less worried in general; also recorded: Did not feel change in mood but feeling cold; also recorded: More relaxed, want to drink sweet tea, better; also recorded: Better mood, feels hyper sexual; also recorded: Felt high mood, now they feel in good way, ,”. The MMSE in the data set on healthy subjects (one value per subject (01-10), scores expected below 25 with a hallucinogenic substance) was 29 (2×) and 30 (3×) and 28 (3×) and 27 (2×).
As to `CN(C)CCc1c[nH]c2cccc(O)c12` [psilocin], the Estimated dose-normalized bioavailability in data set [2] is recorded as 52.7%.
In the case of `CN(C)CCc1c[nH]c2cccc(OP(=O)(O)O)c12` [psilocybin, Psilocybin], in data set [3], the “Lowest dose with reported hallucinogenic effects coupled with increased anxiety” value was 5 mg.
